Results published in ChEMBL document CHEMBL5143569.

Each compound was assayed against T1, Tyrosine-protein phosphatase non-receptor type 11 (Homo sapiens) (UniProt Q06124). Settings: filed as negative allosteric modulator.
T1 sequence (whole entry): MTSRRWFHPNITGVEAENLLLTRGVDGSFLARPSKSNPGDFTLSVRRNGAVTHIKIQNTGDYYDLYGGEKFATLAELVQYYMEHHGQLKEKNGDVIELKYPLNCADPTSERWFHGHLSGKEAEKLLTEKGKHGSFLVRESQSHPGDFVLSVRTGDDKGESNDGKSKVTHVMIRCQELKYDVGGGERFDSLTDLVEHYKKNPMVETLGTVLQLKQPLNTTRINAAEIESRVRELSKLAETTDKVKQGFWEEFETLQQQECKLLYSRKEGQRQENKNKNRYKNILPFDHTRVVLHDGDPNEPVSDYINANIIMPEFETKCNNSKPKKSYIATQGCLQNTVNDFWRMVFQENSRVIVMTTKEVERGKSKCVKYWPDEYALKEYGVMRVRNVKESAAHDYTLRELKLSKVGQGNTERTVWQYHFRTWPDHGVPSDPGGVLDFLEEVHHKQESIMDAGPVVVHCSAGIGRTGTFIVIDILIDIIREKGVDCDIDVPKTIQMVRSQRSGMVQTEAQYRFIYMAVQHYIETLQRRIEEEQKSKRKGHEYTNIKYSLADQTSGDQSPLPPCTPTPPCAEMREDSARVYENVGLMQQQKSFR
Description: Allosteric inhibition of recombinant human SHP2 assessed as change in melting temperature by SYPRO orange dye based thermal shift assay

Row | Compound | ΔTm [°C]
1 | Nc1nc(N2CCC(N)CC2)cnc1-c1cccc(Cl)c1Cl | 1.72
2 | CC1(N)CCN(c2cnc(Sc3ccccc3C(F)(F)F)c(N)n2)CC1 | 3.45
3 | CC1(O)CCN(c2cnc(-c3cccc(Cl)c3Cl)c(N)n2)CC1 | 0.435
4 | CNC1CCN(c2cnc(-c3cccc(Cl)c3Cl)c(N)n2)CC1 | 3.06
5 | Nc1nc(N2CCC(O)CC2)cnc1-c1cccc(Cl)c1Cl | 0.36
6 | CC1(N)CCN(c2cnc(SCc3ccccc3)c(N)n2)CC1 | 0.38
7 | CC1(N)CCN(c2cnc(Sc3cccc4ccccc34)c(N)n2)CC1 | 3.6
8 | NCC1CCN(c2cnc(-c3cccc(Cl)c3Cl)c(N)n2)CC1 | 3.67
9 | CC1(N)CCN(c2cnc(Sc3cccc(Cl)c3)c(N)n2)CC1 | 1.7
10 | CC1(N)CCN(c2cnc(Sc3ccccc3F)c(N)n2)CC1 | 2.88
11 | CC1(N)CCN(c2cnc(Sc3ccc(Cl)cc3)c(N)n2)CC1 | 0.43
12 | CC1(N)CCN(c2cnc(-c3cccc(F)c3F)c(N)n2)CC1 | 0.52
13 | Nc1nc(N2CC[C@H](N)C2)cnc1-c1cccc(Cl)c1Cl | 1.92
14 | CC1(N)CCN(c2cnc(Sc3cccc(Cl)c3Cl)c(N)n2)CC1 | 6.24
15 | CC1(N)CCN(c2cnc(Sc3ccc4ccccc4c3)c(N)n2)CC1 | 2.23
16 | COc1ccccc1Sc1ncc(N2CCC(C)(N)CC2)nc1N | 3.79

Row | Compound | ΔTm [°C]
17 | Nc1nc(N2CCNCC2)cnc1-c1cccc(Cl)c1Cl | 3.01
18 | NCCC1CCN(c2cnc(-c3cccc(Cl)c3Cl)c(N)n2)CC1 | 2.31
19 | NCC1CCN(c2cnc(Sc3cccc(Cl)c3Cl)c(N)n2)CC1 | 4.93
20 | CC1(CN)CCN(c2cnc(Sc3cccc(Cl)c3Cl)c(N)n2)CC1 | 7.01
21 | Cc1ccccc1Sc1ncc(N2CCC(C)(N)CC2)nc1N | 1.75
22 | CC1(N)CCN(c2cnc(Sc3ccccc3)c(N)n2)CC1 | 1.72
23 | CC1(N)CCN(c2cnc(Sc3ccccc3Cl)c(N)n2)CC1 | 4.13
24 | CN(CCN)c1cnc(-c2cccc(Cl)c2Cl)c(N)n1 | 1.06
25 | CC1(N)CCN(c2cnc(-c3ccc(C#N)cc3)c(N)n2)CC1 | 0.275
26 | Cc1ccc(-c2ncc(N3CCC(C)(N)CC3)nc2N)cc1 | 0.42
27 | CC1(N)CCN(c2cnc(SC3CCCCC3)c(N)n2)CC1 | 0.88
28 | CN1CCN(c2cnc(-c3cccc(Cl)c3Cl)c(N)n2)CC1 | 3.2
29 | CC1(N)CCN(c2cnc(-c3cccc(Cl)c3Cl)c(N)n2)CC1 | 4.37
30 | CC1(N)CCN(c2cnc(SCc3ccccc3Cl)c(N)n2)CC1 | 0.44
31 | CC1(N)CCN(c2cnc(Sc3ccccc3Br)c(N)n2)CC1 | 4.47
